# Assay results: PMC4187893, “Biochemical and Antiparasitic Properties of Inhibitors of the Plasmodium falciparum Calcium-Dependent Protein Kinase PfCDPK1” (Antimicrobial Agents and Chemotherapy, 2014)
# Read-outs that look alike come from different tables or passages of the source.
# Legend:
# [1] = target: T1, PfCDPK1 (Plasmodium falciparum, UniProt P62344); details: absence of MTIP; for IC50: mean (SD), n = 2
# [2] = target: PbCDPK1 (Plasmodium berghei, UniProt A0A509AHB6); assay: Rh-ParM ADP sensor IC50 assay, PbCDPK1; details: for IC50: read-out: IC50 PbCDPK1, Rh-ParM, absence of MTIP, ATP at Km, mean (SD), n = 2
# PbCDPK1, sequence (A0A509AHB6 whole entry): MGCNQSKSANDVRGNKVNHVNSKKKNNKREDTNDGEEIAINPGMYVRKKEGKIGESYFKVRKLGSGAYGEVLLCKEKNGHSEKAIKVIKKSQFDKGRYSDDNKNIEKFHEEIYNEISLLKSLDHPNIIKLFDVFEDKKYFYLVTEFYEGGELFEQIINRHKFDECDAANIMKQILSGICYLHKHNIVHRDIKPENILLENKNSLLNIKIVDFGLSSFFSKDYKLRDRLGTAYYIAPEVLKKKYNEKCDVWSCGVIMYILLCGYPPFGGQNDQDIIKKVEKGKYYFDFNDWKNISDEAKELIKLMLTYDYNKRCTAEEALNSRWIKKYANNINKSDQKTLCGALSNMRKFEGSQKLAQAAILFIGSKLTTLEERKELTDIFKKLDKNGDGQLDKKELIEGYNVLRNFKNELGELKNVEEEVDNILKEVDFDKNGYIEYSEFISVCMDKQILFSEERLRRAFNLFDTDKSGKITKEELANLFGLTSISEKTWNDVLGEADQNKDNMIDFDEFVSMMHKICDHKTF
# [3] = target: PvCDPK1 (Plasmodium vivax, UniProt A5KBU9); assay: Rh-ParM ADP sensor IC50 assay, PvCDPK1; details: for IC50: read-out: IC50 PvCDPK1, Rh-ParM, absence of MTIP, ATP at Km, mean (SD), n = 2
# PvCDPK1, sequence (A5KBU9 entry or part of it): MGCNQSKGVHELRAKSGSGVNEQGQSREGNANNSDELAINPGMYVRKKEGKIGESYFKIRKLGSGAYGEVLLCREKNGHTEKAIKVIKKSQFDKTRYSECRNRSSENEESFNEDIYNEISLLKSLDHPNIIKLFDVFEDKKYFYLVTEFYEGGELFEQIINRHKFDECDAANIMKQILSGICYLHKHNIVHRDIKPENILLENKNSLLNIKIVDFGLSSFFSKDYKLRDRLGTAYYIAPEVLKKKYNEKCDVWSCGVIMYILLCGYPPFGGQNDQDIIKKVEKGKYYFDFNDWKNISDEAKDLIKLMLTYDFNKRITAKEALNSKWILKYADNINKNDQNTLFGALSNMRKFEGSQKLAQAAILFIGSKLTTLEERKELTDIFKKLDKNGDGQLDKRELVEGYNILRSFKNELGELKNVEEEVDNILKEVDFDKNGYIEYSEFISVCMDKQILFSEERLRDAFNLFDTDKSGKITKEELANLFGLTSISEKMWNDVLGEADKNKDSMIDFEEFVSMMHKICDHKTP
# [4] = target: T1, PfCDPK1; assay: Kinase-Glo Plus ATP depletion assay; details: read-out: IC50 ATP depletion, ATP and MTIP at their respective Km values
# [5] = target: T1, PfCDPK1; assay: Radiometric assay, incorporation of 33P into MTIP; details: for IC50 ratio (ATP depletion/radiometric assay): Kinase-Glo Plus IC50 / radiometric IC50; for IC50: read-out: IC50 Radiometric assay, ATP and MTIP at their respective Km values
# [6] = test system: P. falciparum 3D7; assay: FACS assay for parasite growth; details: Plasmodium falciparum, 3D7, 48 h, read-out: mean EC50, positive controls in parasite growth assay
# [7] = target: PfCDPK1 T145Q (Plasmodium falciparum, UniProt P62344, T145Q); assay: Rh-ParM ADP sensor assay, gatekeeper mutant T145Q; details: Ki, absence of MTIP
# PfCDPK1 T145Q, sequence (P62344 whole entry T145Q): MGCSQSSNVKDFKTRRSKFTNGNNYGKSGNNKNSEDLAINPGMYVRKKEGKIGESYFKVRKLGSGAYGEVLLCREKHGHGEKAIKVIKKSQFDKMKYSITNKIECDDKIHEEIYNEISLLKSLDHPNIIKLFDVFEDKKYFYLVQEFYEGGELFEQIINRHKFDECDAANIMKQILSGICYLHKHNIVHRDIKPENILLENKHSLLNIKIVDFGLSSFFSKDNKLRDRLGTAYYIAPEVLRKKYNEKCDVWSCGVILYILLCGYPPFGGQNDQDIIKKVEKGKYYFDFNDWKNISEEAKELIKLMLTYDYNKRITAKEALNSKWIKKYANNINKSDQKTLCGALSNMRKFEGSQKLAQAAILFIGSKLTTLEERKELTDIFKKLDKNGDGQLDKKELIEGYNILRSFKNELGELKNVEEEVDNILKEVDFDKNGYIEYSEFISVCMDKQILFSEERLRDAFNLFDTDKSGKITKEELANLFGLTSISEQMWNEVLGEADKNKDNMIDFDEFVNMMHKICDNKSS
# [8] = read-out: IC50 With 30 μM ATP, 30 μM ATP, Rh-ParM ADP detection
# [9] = read-out: IC50 With 1 mM ATP, 1 mM ATP, Rh-ParM ADP detection
# [10] = read-out: IC50 PfCDPK1, Rh-ParM, ATP at Km
# T1 sequence (P62344 whole entry): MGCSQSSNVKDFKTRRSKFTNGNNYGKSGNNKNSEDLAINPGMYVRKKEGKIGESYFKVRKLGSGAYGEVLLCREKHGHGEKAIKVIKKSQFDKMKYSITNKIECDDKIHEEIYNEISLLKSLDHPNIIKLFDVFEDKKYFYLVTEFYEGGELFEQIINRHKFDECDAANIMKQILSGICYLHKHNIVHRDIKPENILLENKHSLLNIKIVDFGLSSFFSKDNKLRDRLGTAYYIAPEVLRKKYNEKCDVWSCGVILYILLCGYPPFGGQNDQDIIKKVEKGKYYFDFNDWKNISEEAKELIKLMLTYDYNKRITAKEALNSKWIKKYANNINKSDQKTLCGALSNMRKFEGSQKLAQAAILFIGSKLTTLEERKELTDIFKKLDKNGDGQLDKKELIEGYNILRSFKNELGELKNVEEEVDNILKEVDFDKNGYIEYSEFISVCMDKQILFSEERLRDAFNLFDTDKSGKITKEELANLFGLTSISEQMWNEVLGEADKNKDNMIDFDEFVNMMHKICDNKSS
Compound,"IC50 [1, 10] [nM]",IC50 ratio PbCDPK1/PfCDPK1 [2],IC50 [2] [nM],IC50 ratio PvCDPK1/PfCDPK1 [3],IC50 [3] [nM],also measured
CCc1ccccc1NC(=O)CSc1nccn(-c2ccc(OC)cc2)c1=O [Compound 22],–,–,–,–,–,"IC50 ratio (IC50 with 1 mM ATP/IC50 with 30 μM ATP) ([1]; Rh-ParM): >3; IC50 [1, 8]: 34200 nM; IC50 [1, 9]: > 100000 nM"
COc1ccc(NC(=O)CSc2nccn(-c3ccc(OC)cc3)c2=O)cc1 [Compound 23],–,–,–,–,–,"IC50 ratio (IC50 with 1 mM ATP/IC50 with 30 μM ATP) ([1]; Rh-ParM): >3; IC50 [1, 8]: 39800 nM; IC50 [1, 9]: > 100000 nM"
COc1ccc(-n2ccnc(SCC(=O)Nc3ccc(C)cc3C)c2=O)cc1 [Compound 24],–,–,–,–,–,"IC50 ratio (IC50 with 1 mM ATP/IC50 with 30 μM ATP) ([1]; Rh-ParM): >3; IC50 [1, 8]: 31200 nM; IC50 [1, 9]: > 100000 nM"
CC(C)CCNc1cc(-c2cnc3ccc(NC4CCN(C)CC4)nn23)ccn1 [Compound 27],138,3.5,479,0.5,68,–
CN1CCC(Nc2ccn3ncc(-c4cccc(NC(=O)c5ccccc5)c4)c3n2)CC1 [Compound 28],40,3.8,152,0.6,24,–
CC(C)CNc1ncc(-c2cnc3ccc(NC4CCC(N)CC4)nn23)cn1 (stereo not drawn) [Compound 29],86,4.6,392,0.9,80,–
c1nc(NCC2CC2)ncc1-c1cnc2ccc(NC3CCNCC3)nn12 [Compound 40],52,4.8,249,0.9,48,–
CC(C)CCNc1ccc(-c2cnn3ccc(NC4CCN(C)C4)nc23)cn1 (stereo not drawn) [Compound 41],73,2.8,206,0.9,68,–
CC(C)CCNc1ncc(-c2cnn3ccc(NC4CCN(C)C4)nc23)cn1 (stereo not drawn) [Compound 42],109,3.2,350,0.9,99,–
c1ccc(-n2cc(-c3cnc4ccc(NC5CCNCC5)nn34)cn2)cc1 [Compound 44],107,4.3,463,0.6,59,–
CN(C)C1CCN(c2ccc3ncc(-c4cnc(Nc5ncccc5F)nc4)n3n2)C1 (stereo not drawn) [Compound 45],19,3.0,58,1.0,19,–
Fc1cccnc1Nc1ncc(-c2cnc3ccc(NC4CCC(N5CCNCC5)CC4)nn23)cn1 (stereo not drawn) [Compound 46],13,2.8,38,0.8,11,–
O=C(NCc1ccccc1)c1ccc(-c2cnc3ccc(NCCc4cccnc4)nn23)cc1 [Compound 47],–,–,–,–,–,IC50 [4]: 27 nM; IC50 ratio (ATP depletion/radiometric assay) [5]: 3.9; IC50 [5]: 7 nM
c1cncc(CCNc2ccc3ncc(-c4ccc5c(c4)OCO5)n3n2)c1 [Compound 50],–,–,–,–,–,IC50 [4]: 41 nM; IC50 ratio (ATP depletion/radiometric assay) [5]: 4.1; IC50 [5]: 10 nM
"CCc1nc(N)nc(N)c1-c1ccc(Cl)cc1 [Pyrimethamine, reference compound]",–,–,–,–,–,EC50 [6]: 8 nM
CN[C@@H]1C[C@H]2O[C@@](C)([C@@H]1OC)n1c3ccccc3c3c4c(c5c6ccccc6n2c5c31)C(=O)NC4 [Staurosporine],–,–,–,–,–,difference in potency between wild-type enzyme and T145Q [7]: no substantial differences
"C[C@@H]1CC[C@H]2[C@@H](C)C(=O)O[C@@H]3O[C@@]4(C)CC[C@@H]1[C@]32OO4 [artemisinin, reference compound]",–,–,–,–,–,EC50 [6]: 13 nM
